Experimental findings from patent publication US20060035820A1, “New derivatives of echinocandine, their preparation process and their use as antifungals” (AVENTIS PHARMA S.A., priority 1999, published 2006) are described below.

The test has as its target T1, Glucan Synthase of Candida albicans (Candida albicans, UniProt O13428).
T1 construct: endogenous in cells; host or cells: Candida albicans membrane preparation (method of Tang et al. 1991)
Nature of the test: Inhibition of the Glucan Synthase of Candida albicans. As to conditions: Candida albicans membranes, 14C-UDP glucose, 25° C. for 1 hour. It is filed as biochemical. The procedure:
A—Inhibition of the Glucan Synthase of Candida albicans.
Candida albicans membranes were purified according to the process described by Tang et al Antimicrob. Agents Chemother 35, 99-103, 1991. 22.5 μg of membrane proteins are incubated in a mixture of 2 Mm of 14C-UDP glucose (specific activity=0.34 mCi./mmol, 50 μg of α-amylase, 1 Mm of dithiotreitol (DTT), 1 Mm EDTA, 100 Mm NaF, 7 μM of GTP-γ-S, 1M of sucrose and 50 Mm of Tris-HCL (pH 7.8) in a volume of 100 μl. The medium is incubated at 25° C. for 1 hour and the reaction is terminated by adding TCA at a final concentration of 5%. The reaction mixture is transferred onto a pre-humidified glass fibre filter. The filter is washed, dried and its radioactivity is counted. Mulundocandine is used as a positive control. Control of the vehicle is carried out with the same quantity of 1% DMSO.

T1 sequence (O13428 1-1897): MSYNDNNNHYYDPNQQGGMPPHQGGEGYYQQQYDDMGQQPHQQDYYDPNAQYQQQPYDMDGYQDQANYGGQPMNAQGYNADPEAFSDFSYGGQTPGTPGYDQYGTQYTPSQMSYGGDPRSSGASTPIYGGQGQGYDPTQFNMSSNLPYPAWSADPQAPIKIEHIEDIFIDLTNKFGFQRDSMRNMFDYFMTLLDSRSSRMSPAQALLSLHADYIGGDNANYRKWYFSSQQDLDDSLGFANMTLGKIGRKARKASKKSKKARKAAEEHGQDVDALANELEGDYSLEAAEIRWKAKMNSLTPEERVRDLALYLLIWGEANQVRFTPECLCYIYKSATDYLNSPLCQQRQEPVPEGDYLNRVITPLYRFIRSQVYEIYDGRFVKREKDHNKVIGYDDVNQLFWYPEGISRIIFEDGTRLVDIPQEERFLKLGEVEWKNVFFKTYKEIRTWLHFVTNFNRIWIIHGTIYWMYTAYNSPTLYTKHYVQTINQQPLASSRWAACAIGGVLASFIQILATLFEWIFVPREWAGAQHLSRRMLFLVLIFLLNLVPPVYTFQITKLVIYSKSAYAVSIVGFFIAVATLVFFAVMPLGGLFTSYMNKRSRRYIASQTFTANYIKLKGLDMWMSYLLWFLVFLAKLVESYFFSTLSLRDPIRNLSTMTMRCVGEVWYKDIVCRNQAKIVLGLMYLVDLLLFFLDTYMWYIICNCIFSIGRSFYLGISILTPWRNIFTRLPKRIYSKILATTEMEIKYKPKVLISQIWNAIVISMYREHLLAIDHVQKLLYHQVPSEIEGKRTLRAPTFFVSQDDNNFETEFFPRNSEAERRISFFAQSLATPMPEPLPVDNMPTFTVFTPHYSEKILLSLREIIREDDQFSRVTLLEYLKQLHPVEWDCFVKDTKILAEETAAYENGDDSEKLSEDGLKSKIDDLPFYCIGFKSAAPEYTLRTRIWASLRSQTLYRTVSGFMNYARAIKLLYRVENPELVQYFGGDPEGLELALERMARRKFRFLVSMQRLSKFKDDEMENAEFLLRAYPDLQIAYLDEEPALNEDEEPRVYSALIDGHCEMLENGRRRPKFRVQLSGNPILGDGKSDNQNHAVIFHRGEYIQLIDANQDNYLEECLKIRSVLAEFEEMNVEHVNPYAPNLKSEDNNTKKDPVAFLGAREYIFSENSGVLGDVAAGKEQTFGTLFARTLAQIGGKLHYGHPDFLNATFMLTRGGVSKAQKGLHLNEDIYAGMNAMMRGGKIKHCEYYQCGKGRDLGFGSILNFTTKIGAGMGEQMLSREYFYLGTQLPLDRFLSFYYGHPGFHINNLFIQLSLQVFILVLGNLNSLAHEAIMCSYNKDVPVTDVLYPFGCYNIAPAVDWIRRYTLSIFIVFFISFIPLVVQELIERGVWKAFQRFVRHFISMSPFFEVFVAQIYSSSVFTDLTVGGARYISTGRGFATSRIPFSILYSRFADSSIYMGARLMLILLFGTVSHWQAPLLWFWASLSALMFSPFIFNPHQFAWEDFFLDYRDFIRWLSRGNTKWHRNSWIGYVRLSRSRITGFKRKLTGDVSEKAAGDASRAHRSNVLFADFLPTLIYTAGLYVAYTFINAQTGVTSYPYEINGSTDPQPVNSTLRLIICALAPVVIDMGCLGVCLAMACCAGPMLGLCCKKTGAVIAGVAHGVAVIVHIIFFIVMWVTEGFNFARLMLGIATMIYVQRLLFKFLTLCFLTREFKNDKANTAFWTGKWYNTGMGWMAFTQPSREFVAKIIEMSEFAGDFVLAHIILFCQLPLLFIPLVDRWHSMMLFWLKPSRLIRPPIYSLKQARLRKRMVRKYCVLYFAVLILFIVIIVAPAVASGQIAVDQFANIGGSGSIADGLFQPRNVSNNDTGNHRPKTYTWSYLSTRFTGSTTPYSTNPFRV
T1 sequence (O42825 1-195 partner limits assumed): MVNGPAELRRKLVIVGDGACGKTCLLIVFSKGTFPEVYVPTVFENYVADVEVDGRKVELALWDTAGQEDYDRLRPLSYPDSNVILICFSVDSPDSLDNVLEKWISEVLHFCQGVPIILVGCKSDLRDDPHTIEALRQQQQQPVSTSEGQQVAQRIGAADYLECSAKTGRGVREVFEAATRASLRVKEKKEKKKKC

Consider “Trans 1-[4-[(2-aminocyclo-hexyl)-amino]-N2-[[4″-(pentyloxy)[1,1′:4′,1″-terphenyl]-4-yl)]-carbonyl]-L-ornithine]-4-[4-(4-hydroxyphenyl)-L-threonine]-5-L-serine-echinocandin B trifluoroacetate (isomer A). [Example 3 isomer A]”, for which the “Inhibition of the glucan synthase of Candida albicans (activity in words)” value is on record as “good activity”.
